{
  "source": "patent US6617114B1",
  "about": "“Identification of drug complementary combinatorial libraries” (priority 1996, dated 2003)",
  "key": {"estrogen receptor α (ER)": {"target": "estrogen receptor α (ER) (Homo sapiens, UniProt P03372)", "sequence (P03372 whole entry)": "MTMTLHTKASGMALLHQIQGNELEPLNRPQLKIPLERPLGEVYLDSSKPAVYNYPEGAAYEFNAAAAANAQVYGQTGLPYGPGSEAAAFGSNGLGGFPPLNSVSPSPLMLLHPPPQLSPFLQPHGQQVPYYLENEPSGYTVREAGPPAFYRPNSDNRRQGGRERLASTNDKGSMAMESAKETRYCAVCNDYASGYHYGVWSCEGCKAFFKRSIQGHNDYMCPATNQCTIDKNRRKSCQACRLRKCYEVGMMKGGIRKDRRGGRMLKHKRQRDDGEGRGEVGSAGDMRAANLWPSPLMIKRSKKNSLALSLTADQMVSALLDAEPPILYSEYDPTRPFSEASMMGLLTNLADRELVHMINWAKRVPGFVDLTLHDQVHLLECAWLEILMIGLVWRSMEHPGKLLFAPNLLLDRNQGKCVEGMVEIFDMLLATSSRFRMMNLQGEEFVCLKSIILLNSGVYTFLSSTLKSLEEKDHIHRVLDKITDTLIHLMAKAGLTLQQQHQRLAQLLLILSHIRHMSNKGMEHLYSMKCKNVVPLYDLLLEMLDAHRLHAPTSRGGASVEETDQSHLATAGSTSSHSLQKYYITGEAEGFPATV", "test": "Phage ELISA competition on immobilized estrogen receptor"}, "UL44": {"target": "T1, UL44 (Human cytomegalovirus, UniProt P16790)", "T1 construct": "made in house; host or cells: E. coli DH5aF′", "test": "Phage ELISA competition on immobilized GSTUL44, UL44-specific phage", "format": "binding", "conditions": "various concentrations of competitor", "method": "(§1) To map the. binding site for the UL44 specific phage displaying the constrained peptide from the X10C library, we competed this phage for binding with linear double stranded DNA. To show the specificity of binding for the substrates and the phage, both phage were competed with both substrates. Microtiter plates were coated with GSTUL44 protein and blocked as described above. Phage specific for either the GST portion or the UL44 portion of the fusion were then added to separate wells and at the same time various concentrations of either GSH or DNA were added. It is important to keep in mind that these phage were isolated from the same affinity selection run."}, "[1]": {"target": "T2, GST portion of the GSTUL44 fusion (Schistosoma japonicum, UniProt P08515)", "T2 construct": "made in house; host or cells: E. coli DH5aF′", "T2 sequence (P08515 whole entry, the tested form may be a part)": "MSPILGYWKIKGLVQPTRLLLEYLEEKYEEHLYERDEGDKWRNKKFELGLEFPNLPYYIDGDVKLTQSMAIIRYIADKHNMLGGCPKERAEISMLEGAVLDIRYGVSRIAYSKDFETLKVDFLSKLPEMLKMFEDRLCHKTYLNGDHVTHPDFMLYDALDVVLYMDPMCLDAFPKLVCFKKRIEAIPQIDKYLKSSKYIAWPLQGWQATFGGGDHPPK", "test": "Phage ELISA competition on immobilized GSTUL44, GST-specific phage", "format": "binding", "conditions": "various concentrations of competitor", "method": "as §1"}, "E. coli ProRS [2]": {"target": "T3, E. coli ProRS (Escherichia coli, UniProt P16659)", "test": "ProRS charging assay", "format": "biochemical", "method": "One question that could be answered with peptides designed from these phage is whether or not they are directed to random regions on the target protein or if they target active sites and regions of other biological interactions. The peptides used in the above ELSAs were added to a charging assay to assess its affects on enzymatic activity of the target."}, "E. coli ProRS [3]": {"target": "T3, E. coli ProRS", "test": "ELSA of ProRS surrogate ligand", "format": "binding", "conditions": "tested on ProRS, GST-src SH3, GST, GST-UL44, TyrRS, GST-MDM2", "method": "(§2) Target protein was immobilized in microtiter wells by incubating 0.5-2.0 μg per well in 100 μl of 0.1 M NaHCO3 overnight at 4° C. […] During the 1 hour blocking period, the SA-AP:surrogate ligand conjugate was prepared by mixing 2 μg SA-AP and 50 pmol biotinylated surrogate ligand for each well of target protein. (This corresponds to a 1:1 ratio of biotinylated peptide to biotin binding sites.) The mixture was incubated at room temperature for 15-20 minutes and then diluted with Tris-buffered saline-TWEEN-20 detergent (TBST) 10 mM Tris-HCl, pH 8.0, 150 mM NaCl, 0.05% TWEEN-20 detergent such that there was 100 μl of conjugate per well. For lower concentrations of surrogate ligand, an unrelated biotinylated peptide was titrated in to keep the total amount of biotinylated peptide at 50 pmol/well and total SA-AP at 2 μg/well.\n(§3) After blocking, the wells were washed once with 200 μl TBST. The surrogate ligand:SA-AP conjugate was then added (100 μl/well) and incubated at room temperature for 2 hours. The wells were then washed 5 times with 300 μl TBST using a BioRad 1575 Immunowash plate washer. The assay was developed by adding 100 μl of pNPP and incubating at room temperature for 5-10 minutes. The absorbance was read at 405 nm.\n(§4) A peptide corresponding to the most often isolated phage was synthesized and used in an ELSA as described in example 1. […]"}, "[4]": {"target": "T4, Agrobacterium faecalis beta-glucosidase (Agrobacterium sp., UniProt P12614)", "T4 sequence (P12614 1-459)": "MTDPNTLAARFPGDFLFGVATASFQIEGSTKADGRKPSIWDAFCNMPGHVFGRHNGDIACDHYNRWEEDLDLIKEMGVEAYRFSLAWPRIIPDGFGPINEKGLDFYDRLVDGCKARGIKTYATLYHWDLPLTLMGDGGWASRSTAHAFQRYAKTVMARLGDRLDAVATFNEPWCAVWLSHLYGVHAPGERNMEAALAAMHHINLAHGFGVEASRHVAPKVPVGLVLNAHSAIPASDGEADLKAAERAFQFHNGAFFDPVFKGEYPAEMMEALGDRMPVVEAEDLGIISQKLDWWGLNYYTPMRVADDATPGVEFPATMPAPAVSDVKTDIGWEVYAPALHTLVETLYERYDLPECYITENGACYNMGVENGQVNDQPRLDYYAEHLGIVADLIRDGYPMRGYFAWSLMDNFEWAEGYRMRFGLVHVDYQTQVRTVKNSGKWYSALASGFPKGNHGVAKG", "test": "Phage ELISA competition with conduritol on beta-glucosidase", "format": "binding", "conditions": "3 mM conduritol for 3 hours", "method": "For the first method of affinity purification, phage libraries were mixed with 1 μg biotinylated target protein in solution and allowed to incubate at room temperature for 4 hours. Phage:protein complexes were then captured on streptavidin paramagnetic beads (Promega, cat#Z5482) by adding beads and incubating the tubes while rotating at room temperature for 30 minutes. The complexes were then drawn to the sides of the tubes using a magnet and the beads were washed with TBST containing 5 mM biotin. Beads were washed once in the first round of panning and 3 times for each additional round. Phage were eluted and amplified using the sequential procedure described in example 3. In the second method of affinity purification, phage libraries were mixed with 1 μg biotinylated target protein that was first captured on streptavidin paramagnetic beads. After the protein was bound, the beads were washed once with TBST containing 5 mM biotin to block the remaining binding sites on streptavidin. The libraries and beads were then mixed at room temperature on a rotator for 4 hours and washed, eluted and amplified as above. Phage ELISAs were carried out by first coating a microtiter plate (Immulon4, Dynex) with 1 μg streptavidin, followed by blocking with BSA. Biotinylated protein was then added to the wells and allowed to bind to the streptavidin for 1 hour. […]"}, "TyrRS": {"target": "TyrRS (Haemophilus influenzae, UniProt P43836)", "sequence (P43836 whole entry)": "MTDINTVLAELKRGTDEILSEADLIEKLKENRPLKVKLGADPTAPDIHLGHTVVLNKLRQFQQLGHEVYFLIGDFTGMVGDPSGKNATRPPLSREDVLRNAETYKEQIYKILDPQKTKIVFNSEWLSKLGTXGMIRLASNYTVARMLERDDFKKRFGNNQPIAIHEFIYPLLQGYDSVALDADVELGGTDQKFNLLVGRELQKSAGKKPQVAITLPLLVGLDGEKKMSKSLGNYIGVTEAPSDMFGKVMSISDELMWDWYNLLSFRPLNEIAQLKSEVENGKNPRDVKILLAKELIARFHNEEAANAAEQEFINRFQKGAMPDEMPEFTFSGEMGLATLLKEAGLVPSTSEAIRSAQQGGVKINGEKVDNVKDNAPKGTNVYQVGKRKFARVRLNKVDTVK", "test": "ELSA of TyrRS surrogate ligand", "format": "binding", "conditions": "tested on TyrRS, GST-src SH3, GST, GST-UL44, GST-MDM2, ProRS", "method": "as §2\nAfter blocking, the wells were washed once with 200 μl TBST. The surrogate ligand:SA-AP conjugate was then added (100 μl/well) and incubated at room temperature for 2 hours. The wells were then washed 5 times with 300 μl TBST using a BioRad 1575 Immunowash plate washer. The assay was developed by adding 100 μl of pNPP and incubating at room temperature for 5-10 minutes. The absorbance was read at 405 nm. […]\nThe ability of the compound to inhibit the binding of the TyrRS1B peptide to TyrRS was determined. […]"}, "E. coli ProRS [5]": {"target": "T5, E. coli ProRS (Escherichia coli, UniProt P16659)", "T5 sequence (P16659 whole entry, looked up)": "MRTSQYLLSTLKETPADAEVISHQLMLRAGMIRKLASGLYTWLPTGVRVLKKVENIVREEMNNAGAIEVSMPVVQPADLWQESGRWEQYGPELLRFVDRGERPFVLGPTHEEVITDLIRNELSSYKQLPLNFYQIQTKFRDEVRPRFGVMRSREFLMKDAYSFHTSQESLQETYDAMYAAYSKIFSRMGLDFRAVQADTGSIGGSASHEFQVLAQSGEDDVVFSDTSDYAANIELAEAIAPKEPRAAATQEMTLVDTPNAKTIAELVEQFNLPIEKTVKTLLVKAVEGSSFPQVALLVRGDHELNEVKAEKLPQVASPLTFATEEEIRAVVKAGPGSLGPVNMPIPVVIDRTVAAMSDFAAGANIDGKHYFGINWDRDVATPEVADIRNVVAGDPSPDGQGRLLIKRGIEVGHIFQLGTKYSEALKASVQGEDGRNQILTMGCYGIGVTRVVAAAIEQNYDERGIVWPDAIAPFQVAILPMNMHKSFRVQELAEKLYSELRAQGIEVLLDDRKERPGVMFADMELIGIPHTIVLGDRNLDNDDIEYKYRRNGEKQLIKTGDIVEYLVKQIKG", "test": "ELSA of ProRS surrogate ligand", "format": "binding", "conditions": "self-competition", "method": "as §2, §3, §4"}, "[6]": {"target": "T6, E. coli proline tRNA synthetase (E. coli), P16659", "T6 chain": "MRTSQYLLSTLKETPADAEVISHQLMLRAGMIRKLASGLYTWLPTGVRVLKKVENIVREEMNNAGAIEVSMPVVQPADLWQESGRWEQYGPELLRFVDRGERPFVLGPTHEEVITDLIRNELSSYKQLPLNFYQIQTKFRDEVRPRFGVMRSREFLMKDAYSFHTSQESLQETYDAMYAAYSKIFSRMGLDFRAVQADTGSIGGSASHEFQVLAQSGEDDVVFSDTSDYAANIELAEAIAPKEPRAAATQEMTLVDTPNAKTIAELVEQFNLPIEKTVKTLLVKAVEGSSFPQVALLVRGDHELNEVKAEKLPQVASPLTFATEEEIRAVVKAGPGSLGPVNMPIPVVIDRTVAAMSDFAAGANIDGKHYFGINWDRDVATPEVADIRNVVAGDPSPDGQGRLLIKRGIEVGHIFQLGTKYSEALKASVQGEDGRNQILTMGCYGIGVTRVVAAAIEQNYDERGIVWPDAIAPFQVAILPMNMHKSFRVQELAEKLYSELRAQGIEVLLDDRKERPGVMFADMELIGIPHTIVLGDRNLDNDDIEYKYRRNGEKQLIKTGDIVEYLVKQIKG", "test": "tRNA charging (enzyme activity) assay, competitive in respect to proline"}, "[7]": {"target": "T6, E. coli proline tRNA synthetase (E. …)", "test": "cell-based or functional assay"}},
  "note": "Where a SMILES comes first, the peptide text is derived from it. Bridges are numbered along the chain shown (N, C = ends). Where no end group is shown, it is not given here.",
  "data": [
    {"molecule": "4-hydroxytamoxifen [reference compound]", "values": [
      {"measurement": "competition with ER binding phage selected in the absence of estradiol", "setting": "estrogen receptor α (ER)", "result": "does not inhibit"}
    ]},
    {"molecule": "N[C@@H](CCC(=O)N[C@@H](CS)C(=O)NCC(=O)O)C(=O)O", "note": "[GSH, glutathione]", "values": [
      {"measurement": "binding of UL44 specific phage (X10C peptide) to GSTUL44 in presence of competitor", "setting": "UL44", "result": "no effect"},
      {"measurement": "binding of GST specific phage to GSTUL44 in presence of competitor", "setting": "[1]", "result": "competed in a dose dependent fashion"}
    ]},
    {"molecule": "CC[C@H](C)[C@@H]1NC(=O)[C@H](C)NC(=O)[C@@H](NC(=O)[C@@H](NC(=O)[C@H](CCCNC(=N)N)NC(=O)[C@@H](N)CO)C(C)C)CSSC[C@@H](C(=O)N[C@@H](CO)C(=O)N[C@@H](CCCNC(=N)N)C(=O)O)NC(=O)CNC(=O)[C@H](CC(=O)O)NC(=O)[C@H](CC(C)C)NC(=O)[C@H](CC(=O)O)NC(=O)[C@@H]2CCCN2C(=O)[C@H](Cc2c[nH]c3ccccc23)NC1=O", "note": "[ProRS BioKey, S R V C A I W P D L D G C S R] (H-SRVCAIWPDLDGCSR-OH; disulfide 4-13; N-terminus and C-terminus assumed)", "values": [
      {"measurement": "time of preincubation with the peptide for 50% inhibition", "setting": "E. coli ProRS [2]; 530 μM peptide", "result": "about 1.5 hours"},
      {"measurement": "mode of inhibition", "setting": "E. coli ProRS [2]; charging assay", "result": "competitive in respect to proline"},
      {"measurement": "specificity of binding of biotinylated peptide", "setting": "E. coli ProRS [3]", "result": "specific for E. coli ProRS"}
    ]},
    {"molecule": "O[C@@H]1[C@H](O)[C@@H](O)C=C[C@H]1O", "note": "[conduritol]", "values": [
      {"measurement": "binding of phage from group 1 after conduritol", "setting": "[4]", "result": "unaffected"},
      {"measurement": "binding of phage from group 2 after conduritol", "setting": "[4]", "result": "inhibited"}
    ]},
    {"molecule": "L Y S W P D E Q Y E R P (LYSWPDEQYERP) [Peptide 1]", "values": [
      {"measurement": "specificity of binding of biotinylated peptide", "setting": "TyrRS", "result": "binds to TyrRS specifically"}
    ]},
    {"molecule": "S R V C A I W P D L D G C S R (SRVCAIWPDLDGCSR) [non-biotinylated ProRS peptide]", "values": [
      {"measurement": "disruption of biotinylated ProRS peptide binding", "setting": "E. coli ProRS [5]", "result": "disrupted in a dose dependent fashion"}
    ]},
    {"molecule": "W L D G L P L Y H E V (WLDGLPLYHEV) [Peptide 5]", "values": [
      {"measurement": "effect of antiestrogens on phage binding to ER", "setting": "estrogen receptor α (ER); phage selected with estradiol, 100 μM tamoxifen, nafoxidine, clomiphene", "result": "S S L T S R D F G S W Y A S R * (SEQ ID NO:156)"}
    ]},
    {"molecule": "SRVCAIWPDLDGCSR (not fully specified; cysteine pairing not given here)", "note": "[non-biotinylated ProRS peptide]", "values": [
      {"measurement": "Ki", "setting": "[6]", "result": "> 500", "unit": "µM"},
      {"measurement": "charging assay (enzymatic activity of the target)", "setting": "[7]", "result": 50, "unit": "% inhibition"}
    ]}
  ]
}
